In patent US12129312B2, “Peptide compound, application thereof and composition containing same” (priority 2017, dated 2024) one finds EC50 data, which are given here for 13 compounds.

pEC50: −log10 of the molar value. Read-outs that look alike come from different tables or passages of the source. Square brackets hold non-standard residues; d marks the D form. Peptide text beside a SMILES is read from it. Pro(trans-4-Ph) = O=C(O)[C@@H]1C[C@@H](c2ccccc2)CN1; Pro(5R-Ph) = O=C(O)[C@@H]1CC[C@H](c2ccccc2)N1; Gly(Nα-CH2CH2CONH2) = NC(=O)CCNCC(=O)O; dNMeY = CN[C@H](Cc1ccc(O)cc1)C(=O)O; NMehLeu = CN[C@@H](CCC(C)C)C(=O)O; NMeF = CN[C@@H](Cc1ccccc1)C(=O)O; NMeQ = CN[C@@H](CCC(N)=O)C(=O)O; Tic = O=C(O)[C@@H]1Cc2ccccc2CN1; NMeL = CN[C@@H](CC(C)C)C(=O)O; NMeS = CN[C@@H](CO)C(=O)O; Thz = O=C(O)[C@@H]1CSCN1; Aze = O=C(O)[C@@H]1CCN1

The target of the assay is T1, human Chemokine like receptor 1 (Homo sapiens, UniProt Q99788).
T1 construct: host or cells: U2OS (Tango CMKLR1-bla U2OS)
T1 sequence (Q99788 1-373): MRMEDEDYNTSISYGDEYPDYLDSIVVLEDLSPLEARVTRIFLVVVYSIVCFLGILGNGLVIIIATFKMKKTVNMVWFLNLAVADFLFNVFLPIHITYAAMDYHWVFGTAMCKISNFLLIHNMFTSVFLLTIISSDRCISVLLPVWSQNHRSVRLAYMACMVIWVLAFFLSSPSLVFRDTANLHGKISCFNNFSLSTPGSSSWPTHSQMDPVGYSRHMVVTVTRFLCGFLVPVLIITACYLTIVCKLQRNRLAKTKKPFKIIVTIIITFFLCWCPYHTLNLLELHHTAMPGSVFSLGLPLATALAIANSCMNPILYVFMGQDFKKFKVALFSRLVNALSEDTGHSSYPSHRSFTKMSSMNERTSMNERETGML
The assay can be described thus: Activation of Tango CMKLR1-bla U2OS cells (beta-lactamase FRET reporter). Format: cell-based. The protocol: The polypeptide sequences described above are the polypeptide sequences disclosed in the patent JP2010-229093A of BANYU PHARMA CO LTD: (D-Tyr)-Phe-Leu-Pro-(D-Ser)-Gln-Phe-(D-Ala)-Tic-Ser was used as a positive control (SEQ ID NO: 102).
The activation of the compound on Tango™ CMKLR1-bla U2OS cells (Invitrogen Cat. nos. K1551) was tested.
The activation of each compound in the above experiments on Tango™ CMKLR1-bla U2OS cells was determined as follows:
Day 1: Cell Seeding on Plate
2. The medium was removed, and the cells were washed with DPBS twice, followed by addition of 3 mL of 0.05% trypsin, and placed in a 37° C., 5% CO2 incubator (Thermo Fisher, Waltham, Massachusetts, USA) for 3-5 minutes. After the cells were rounded, 3-5 mL of medium (medium formula: DMEM 90%, Dialyzed FBS 10%, NEAA 0.1 mM, HEPES (pH 7.3) 25 mM, Penicillin 100 U/mL, Streptomycin 100 μg/mL) was added to terminate digestion.
2. The digested cells were transferred to a 15 mL centrifuge tube (430790, Corning), centrifuged at 1000 rpm for 5 minutes (5810R, Eppendorf, Hamburg, Germany), and the supernatant was discarded.
3. 7 mL of medium (DMEM+10% FBS) was added, blowed into a single cell suspension, counted by a cell counter, and adjusted the cell suspension to a desired cell density of 250,000/mL with the medium.
4. The cell suspension was seeded into a 384-well cell plate (Corning 3712) in 40 μL/well to make the number of cells 10000 cells/well, and 32 μL of medium was added to the blank control.
5. The incubation was performed overnight at 37° C. under 5% CO2.
Day 2: Dosing and Testing
1. Preparation of 200× Compound Plate
1.1 The test compound was formulated into a 10 mM working solution in DMSO.
1.2 45 μL of 10 mM test compound was added to the 2nd column of rows A to P in the Echo-384 well plate. The compound was subjected to a 3-fold dilution with Precision (30 μL of DMSO was added to the 3rd to 11th columns; 15 μL of the drug solution was pipetted from the 2nd column to the 3rd column, blown and evenly mixed; then 15 μL of the drug solution was pipetted from the 3rd column to the 4th column, blown and evenly mixed; the drugs was subjected to a 3-fold dilution to obtain 10 concentrations in total). The 1st and 12th columns of the Echo-384 well plate were supplemented with 30 μL of DMSO.
2. Preparation of Intermediate Plate
500 nL, i.e., 0.5 μL of the diluted compound (or DMSO) in the 200× compound plate was transferred into the corresponding position of V-bottom 384-well plate with Echo. 20 μL of medium was added to each well, centrifuged, shaken and evenly mixed. The concentration of the drugs in each well of the 2nd to 11th column of intermediate plate (i.e., 5× compound plate) were shown in following Table 4.
3.1 The cell plate was taken out from the incubator and observed under a microscope. The diluted compound or DMSO in the intermediate plate was added to the cell plate in 10 μL/well in the corresponding cell plate, and 40 μL of medium was pre-filled in each well.
3.2 The cells were incubated at 37° C. under 5% CO2 for 4 hours.
4.1 1 mM CCF4-AM, solution B, Solution C, and Solution D were used to prepare an appropriate amount of 6× detection solution. The LiveBLAzer™-FRET B/G Loading kit (K1095, Thermo Fisher, Waltham, Massachusetts, USA) kit containing CCF-4AM and solutionB, solutionC, and solutionD was also purchased from invitrogen (K1157, Thermo Fisher, Waltham, Massachusetts, USA).
4.2 The cells were observed under a microscope and the cell plate was equilibrated to room temperature.
4.3 6 μL of CCF-4AM dissolved solution A, 60 μL of solution B, 904 μL of solution C and 30 μL of solution D were pipetted in an EP tube, blown, and evenly mixed to obtain a 6× detection solution. The prepared 6× detection solution was pipetted to a 384-well plate in 10 μL/well.

Setting [1] is: determination by the method of Effect Embodiment 1, read-out: EC50.

Consider `CC(C)C[C@@H](C(=O)N1CCC[C@H]1C(=O)N[C@H](CO)C(=O)N[C@@H](CCC(N)=O)C(=O)N[C@@H](Cc1ccccc1)C(=O)N[C@H](C)C(=O)N1Cc2ccccc2C[C@H]1C(=O)N[C@@H](CO)C(=O)O)N(C)C(=O)[C@H](Cc1ccccc1)NC(=O)[C@H](N)Cc1ccc(O)cc1` [YW-98, (D-Tyr)-Phe-(NMe-Leu)-Pro-(D-Ser)-Gln-Phe-(D-Ala)-Tic-Ser-OH] (H-[dY]F[NMeL]P[dS]QF[dA][Tic]S-OH), for which, under setting [1], the pEC50 is 8.52.
The same measure, in the same setting: then `C[C@@H](NC(=O)[C@H](Cc1ccccc1)NC(=O)[C@H](CCC(N)=O)NC(=O)[C@@H](CO)NC(=O)[C@@H]1CCCN1C(=O)[C@H](Cc1ccccc1)N(C)C(=O)[C@H](Cc1ccccc1)NC(=O)[C@H](N)Cc1ccc(O)cc1)C(=O)N1Cc2ccccc2C[C@H]1C(=O)N[C@@H](CO)C(=O)O` [YW-100, (D-Tyr)-Phe-(NMe-Phe)-Pro-(D-Ser)-Gln-Phe-(D-Ala)-Tic-Ser-OH] (H-[dY]F[NMeF]P[dS]QF[dA][Tic]S-OH), with 7.38.
`CC(C)CC[C@@H](C(=O)N1CCC[C@H]1C(=O)N[C@H](CO)C(=O)N[C@@H](CCC(N)=O)C(=O)N[C@@H](Cc1ccccc1)C(=O)N[C@H](C)C(=O)N1Cc2ccccc2C[C@H]1C(=O)N[C@@H](CO)C(=O)O)N(C)C(=O)[C@H](Cc1ccccc1)NC(=O)[C@H](N)Cc1ccc(O)cc1` [YW-101, (D-Tyr)-Phe-(NMe-HoLeu)-Pro-(D-Ser)-Gln-Phe-(D-Ala)-Tic-Ser-OH] (H-[dY]F[NMehLeu]P[dS]QF[dA][Tic]S-OH) showed a pEC50 of 8.54.
On to `CN[C@H](Cc1ccc(O)cc1)C(=O)N[C@@H](Cc1ccccc1)C(=O)N[C@@H](CC(C)C)C(=O)N1CCC[C@H]1C(=O)N[C@H](CO)C(=O)N[C@@H](CCC(N)=O)C(=O)N[C@@H](Cc1ccccc1)C(=O)N[C@H](C)C(=O)N1Cc2ccccc2C[C@H]1C(=O)N[C@@H](CO)C(=O)O` [YW-103, (D-NMe-Tyr)-Phe-Leu-Pro-(D-Ser)-Gln-Phe-(D-Ala)-Tic-Ser-OH] (H-[dNMeY]FLP[dS]QF[dA][Tic]S-OH; N-terminus assumed), for which the pEC50 under setting [1] is 8.03.
Still for that read-out and setting: then `CC(C)C[C@H](NC(=O)[C@H](Cc1ccccc1)N(C)C(=O)[C@H](N)Cc1ccc(O)cc1)C(=O)N1CCC[C@H]1C(=O)N[C@H](CO)C(=O)N[C@@H](CCC(N)=O)C(=O)N[C@@H](Cc1ccccc1)C(=O)N[C@H](C)C(=O)N1Cc2ccccc2C[C@H]1C(=O)N[C@@H](CO)C(=O)O` [YW-104, (D-Tyr)-(NMe-Phe)-Leu-Pro-(D-Ser)-Gln-Phe-(D-Ala)-Tic-Ser-OH] (H-[dY][NMeF]LP[dS]QF[dA][Tic]S-OH), with 7.10; and `CC(C)C[C@@H](C(=O)N1CCC[C@H]1C(=O)N[C@H](CO)C(=O)N[C@@H](CCC(N)=O)C(=O)N[C@@H](Cc1ccccc1)C(=O)N[C@H](C)C(=O)N1Cc2ccccc2C[C@H]1C(=O)N[C@@H](CO)C(=O)O)N(C)C(=O)[C@H](Cc1ccccc1)N(C)C(=O)[C@H](N)Cc1ccc(O)cc1` [YW-105, (D-Tyr)-(NMe-Phe)-(NMe-Leu)-Pro-(D-Ser)-Gln-Phe-(D-Ala)-Tic-Ser-OH] (H-[dY][NMeF][NMeL]P[dS]QF[dA][Tic]S-OH; N-terminus assumed), with 7.97; and `CC(C)C[C@H](NC(=O)[C@H](Cc1ccccc1)NC(=O)[C@H](N)Cc1ccc(O)cc1)C(=O)N1CCC[C@H]1C(=O)N[C@H](CO)C(=O)N(C)[C@@H](CCC(N)=O)C(=O)N[C@@H](Cc1ccccc1)C(=O)N[C@H](C)C(=O)N1Cc2ccccc2C[C@H]1C(=O)N[C@@H](CO)C(=O)O` [YW-107, (D-Tyr)-Phe-Leu-Pro-(D-Ser)-(NMe-Gln)-Phe-(D-Ala)-Tic-Ser-OH] (H-[dY]FLP[dS][NMeQ]F[dA][Tic]S-OH), with < 4.30.
Turning to `CC(C)C[C@H](NC(=O)[C@H](Cc1ccccc1)NC(=O)[C@H](N)Cc1ccc(O)cc1)C(=O)N1CCC[C@H]1C(=O)N[C@H](CO)C(=O)N(CCC(N)=O)CC(=O)N[C@@H](Cc1ccccc1)C(=O)N[C@H](C)C(=O)N1Cc2ccccc2C[C@H]1C(=O)N[C@@H](CO)C(=O)O` [YW-108, (D-Tyr)-Phe-Leu-Pro-(D-Ser)-NGln-Phe-(D-Ala)-Tic-Ser-OH] (H-[dY]FLP[dS][Gly(Nα-CH2CH2CONH2)]F[dA][Tic]S-OH), the pEC50 under setting [1] was < 4.30.
Still for that read-out and setting: then `CC(C)C[C@H](NC(=O)[C@H](Cc1ccccc1)NC(=O)[C@H](N)Cc1ccc(O)cc1)C(=O)N1CCC[C@H]1C(=O)N[C@H](CO)C(=O)N[C@@H](CCC(N)=O)C(=O)N[C@@H](Cc1ccccc1)C(=O)N[C@H](C)C(=O)N1Cc2ccccc2C[C@H]1C(=O)N(C)[C@@H](CO)C(=O)O` [YW-110, (D-Tyr)-Phe-Leu-Pro-(D-Ser)-Gln-Phe-(D-Ala)-Tic-(NMe-Ser)-OH] (H-[dY]FLP[dS]QF[dA][Tic][NMeS]-OH), with 7.89.
Take `CC(C)C[C@H](NC(=O)[C@H](Cc1ccccc1)NC(=O)[C@H](N)Cc1ccc(O)cc1)C(=O)N1[C@@H](c2ccccc2)CC[C@H]1C(=O)N[C@H](CO)C(=O)N[C@@H](CCC(N)=O)C(=O)N[C@@H](Cc1ccccc1)C(=O)N[C@H](C)C(=O)N1Cc2ccccc2C[C@H]1C(=O)N[C@@H](CO)C(=O)O` [YW-112, (D-Tyr)-Phe-Leu-Pro(5Ph)-(D-Ser)-Gln-Phe-(D-Ala)-Tic-Ser-OH] (H-[dY]FL[Pro(5R-Ph)][dS]QF[dA][Tic]S-OH): under setting [1], the pEC50 is 6.77.
As for `CC(C)C[C@H](NC(=O)[C@H](Cc1ccccc1)NC(=O)[C@H](N)Cc1ccc(O)cc1)C(=O)N1C[C@H](c2ccccc2)C[C@H]1C(=O)N[C@H](CO)C(=O)N[C@@H](CCC(N)=O)C(=O)N[C@@H](Cc1ccccc1)C(=O)N[C@H](C)C(=O)N1Cc2ccccc2C[C@H]1C(=O)N[C@@H](CO)C(=O)O` [YW-113, (D-Tyr)-Phe-Leu-Pro(4-Ph)-(D-Ser)-Gln-Phe-(D-Ala)-Tic-Ser-OH] (H-[dY]FL[Pro(trans-4-Ph)][dS]QF[dA][Tic]S-OH), under setting [1], the pEC50 is 8.07.
On the same count and under the same terms, with `CC(C)C[C@H](NC(=O)[C@H](Cc1ccccc1)NC(=O)[C@H](N)Cc1ccc(O)cc1)C(=O)N1CSC[C@H]1C(=O)N[C@H](CO)C(=O)N[C@@H](CCC(N)=O)C(=O)N[C@@H](Cc1ccccc1)C(=O)N[C@H](C)C(=O)N1Cc2ccccc2C[C@H]1C(=O)N[C@@H](CO)C(=O)O` [YW-114, (D-Tyr)-Phe-Leu-Thz-(D-Ser)-Gln-Phe-(D-Ala)-Tic-Ser-OH] (H-[dY]FL[Thz][dS]QF[dA][Tic]S-OH) the figure was 8.30; with `CC(C)C[C@H](NC(=O)[C@H](Cc1ccccc1)NC(=O)[C@H](N)Cc1ccc(O)cc1)C(=O)N1CC[C@H]1C(=O)N[C@H](CO)C(=O)N[C@@H](CCC(N)=O)C(=O)N[C@@H](Cc1ccccc1)C(=O)N[C@H](C)C(=O)N1Cc2ccccc2C[C@H]1C(=O)N[C@@H](CO)C(=O)O` [YW-115, (D-Tyr)-Phe-Leu-Aze-(D-Ser)-Gln-Phe-(D-Ala)-Tic-Ser-OH] (H-[dY]FL[Aze][dS]QF[dA][Tic]S-OH), 6.72.

As usually defined, the pEC50 is the negative decadic logarithm of the EC50, by convention in mol/L.
